Data from US20260374751A1, “AMIDE PRODRUGS AND USES THEREOF” (Autobahn Therapeutics, Inc., priority 2022, published 2026).

Target: T1, recombinant human FAAH (rhFAAH) (Homo sapiens, UniProt O00519)
T1 sequence (O00519 1-579): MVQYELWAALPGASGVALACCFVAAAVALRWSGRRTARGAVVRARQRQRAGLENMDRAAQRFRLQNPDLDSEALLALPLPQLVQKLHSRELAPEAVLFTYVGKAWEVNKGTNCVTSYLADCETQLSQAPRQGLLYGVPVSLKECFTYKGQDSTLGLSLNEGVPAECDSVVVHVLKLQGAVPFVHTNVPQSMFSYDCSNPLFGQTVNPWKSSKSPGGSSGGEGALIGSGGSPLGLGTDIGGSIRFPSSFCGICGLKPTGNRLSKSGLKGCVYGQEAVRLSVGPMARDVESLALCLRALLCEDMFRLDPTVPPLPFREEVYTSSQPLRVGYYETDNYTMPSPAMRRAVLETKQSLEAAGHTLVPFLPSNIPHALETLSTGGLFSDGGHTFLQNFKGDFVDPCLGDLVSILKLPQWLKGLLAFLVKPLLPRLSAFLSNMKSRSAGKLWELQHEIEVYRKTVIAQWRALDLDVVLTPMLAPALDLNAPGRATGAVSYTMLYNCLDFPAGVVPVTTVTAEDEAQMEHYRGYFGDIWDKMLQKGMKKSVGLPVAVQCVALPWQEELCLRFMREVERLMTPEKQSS
Experiment: FAAH substrate evaluation: formation of acid metabolite by purified recombinant human FAAH (rhFAAH)
Format: biochemical
Conditions: role: substrate; 1 μM test compound, 0.5 ng/μL rhFAAH, 1.25% ethanol or 1 μM PF-3845 (FAAH inhibitor), 0.1% BSA, Tris-EDTA pH 8.0, room temperature, 0-60 minutes
Protocol: Purified recombinant human FAAH (rhFAAH) was purchased from Cayman Chemical (Ann Arbor, MI, USA). The total volume for each incubation was 400 μL containing a final 0.5 ng/μL rhFAAH, 1 μM test compound, 1.25% ethanol or 1 μM PF-3845 (FAAH inhibitor), and 0.1% bovine serum albumin in Tris-EDTA buffer at pH 8.0). The incubation was conducted at room temperature. At 0, 5, 15, 30 and 60 minutes, an aliquot of 30 μL reaction mixtures was removed and mixed with 300 μL acetonitrile containing 5 ng/mL terfenadine and 10 ng/mL tolbutamide as internal standards to quench the reaction. The resulting mixture was centrifuged at 4000 rpm, 4 °C for 15 minutes, and 100 μL supernatant was ready for LC-MS/MS analysis to measure the formation of acid metabolite.
Acquity Ultra Performance LC system from Waters was used for sample analysis. The chromatography was performed on a reverse phase Kinetex 2.6 μm C18 column, 2.1×30 mm, 100 Å. The mobile phase A comprised of 0.1% formic acid in water and mobile phase B comprised of 0.1% formic acid in acetonitrile with a 1.5 min run time at the flow rate of 0.9 mL/min for the acid metabolite of test compounds. The mass spectrometer (API-5500 and API Q Trap 4000 Applied Biosystems/MDS SCIEX Instruments, Framingham, MA, USA) was operated under ESI positive or negative ion MRM mode.
The formation of acid metabolite was monitored and quantified using one calibration point of 1 μM. The observed rate constant (ke) for the acid metabolite formation was calculated by plotting the metabolite concentration versus time of incubation with the slope being ke and is shown in Table 1.

SMILES | ke (observed rate constant for the acid metabolite formation)
CCCc1ccc(COc2ccc3c(c2)CCC(CN2CC(C(=O)NC)C2)=C3C)c(OC)c1 [Compound 2, 1-((6-((2-methoxy-4-propylbenzyl)oxy)-1-methyl-3,4-dihydronaphthalen-2-yl)methyl)-N-methylazetidine-3-carboxamide] | B (ke is less than 1.0 and more than 0)
CCCc1ccc(COc2ccc3c(c2)CCC(CN2CC(C(=O)Nc4cccnc4)C2)=C3C)c(OC)c1 [Compound 3, 1-((6-((2-methoxy-4-propylbenzyl)oxy)-1-methyl-3,4-dihydronaphthalen-2-yl)methyl)-N-(pyridin-3-yl)azetidine-3-carboxamide] | B (ke is less than 1.0 and more than 0)
CCCc1ccc(COc2ccc3c(c2)CCC(CN2CC(C(=O)Nc4cccnn4)C2)=C3C)c(OC)c1 [Compound 4, 1-((6-((2-methoxy-4-propylbenzyl)oxy)-1-methyl-3,4-dihydronaphthalen-2-yl)methyl)-N-(pyridazin-3-yl)azetidine-3-carboxamide] | A (ke is more than or equal to 1.0)
CCCc1ccc(COc2ccc3c(c2)CCC(CN2CC(C(=O)NCCCF)C2)=C3C)c(OC)c1 [Compound 5, N-(3-fluoropropyl)-1-((6-((2-methoxy-4-propylbenzyl)oxy)-1-methyl-3,4-dihydronaphthalen-2-yl)methyl)azetidine-3-carboxamide] | A (ke is more than or equal to 1.0)
CCCc1ccc(COc2ccc3c(c2)CCC(CN2CC(C(=O)NCC(F)(F)F)C2)=C3C)c(OC)c1 [Compound 6, 1-((6-((2-methoxy-4-propylbenzyl)oxy)-1-methyl-3,4-dihydronaphthalen-2-yl)methyl)-N-(2,2,2-trifluoroethyl)azetidine-3-carboxamide] | A (ke is more than or equal to 1.0)
CCCc1ccc(COc2ccc3c(c2)CCC(CN2CC(C(=O)NCC4CC4)C2)=C3C)c(OC)c1 [Compound 7, N-(cyclopropylmethyl)-1-((6-((2-methoxy-4-propylbenzyl)oxy)-1-methyl-3,4-dihydronaphthalen-2-yl)methyl)azetidine-3-carboxamide] | A (ke is more than or equal to 1.0)
CCCc1ccc(COc2ccc3c(c2)CCC(CN2CC(C(=O)NC4CC4)C2)=C3C)c(OC)c1 [Compound 8, N-cyclopropyl-1-((6-((2-methoxy-4-propylbenzyl)oxy)-1-methyl-3,4-dihydronaphthalen-2-yl)methyl)azetidine-3-carboxamide] | A (ke is more than or equal to 1.0)
CCCc1ccc(COc2ccc3c(c2)CCC(CN2CC(C(=O)N[C@H](C)CC)C2)=C3C)c(OC)c1 [Compound 9, (R)—N-(sec-butyl)-1-((6-((2-methoxy-4-propylbenzyl)oxy)-1-methyl-3,4-dihydronaphthalen-2-yl)methyl)azetidine-3-carboxamide] | A (ke is more than or equal to 1.0)
CCCc1ccc(COc2ccc3c(c2)CCC(CN2CC(C(=O)N[C@@H](C)CC)C2)=C3C)c(OC)c1 [Compound 10, (S)—N-(sec-butyl)-1-((6-((2-methoxy-4-propylbenzyl)oxy)-1-methyl-3,4-dihydronaphthalen-2-yl)methyl)azetidine-3-carboxamide] | B (ke is less than 1.0 and more than 0)

Now from value to compound:

ke (observed rate constant for the acid metabolite formation) | SMILES
A (ke is more than or equal to 1.0) | CCCc1ccc(COc2ccc3c(c2)CCC(CN2CC(C(=O)NCCC(F)(F)F)C2)=C3C)c(OC)c1 [Compound 11, 1-((6-((2-methoxy-4-propylbenzyl)oxy)-1-methyl-3,4-dihydronaphthalen-2-yl)methyl)-N-(3,3,3-trifluoropropyl)azetidine-3-carboxamide]
A (ke is more than or equal to 1.0) | CCCc1ccc(COc2ccc3c(c2)CCC(CN2CC(C(=O)N4CCC4)C2)=C3C)c(OC)c1 [Compound 12, azetidin-1-yl(1-((6-((2-methoxy-4-propylbenzyl)oxy)-1-methyl-3,4-dihydronaphthalen-2-yl)methyl)azetidin-3-yl)methanone]
A (ke is more than or equal to 1.0) | CCCc1ccc(COc2ccc3c(c2)CCC(CN2CC(C(=O)Nc4ccncc4)C2)=C3C)c(OC)c1 [Compound 13, 1-((6-((2-methoxy-4-propylbenzyl)oxy)-1-methyl-3,4-dihydronaphthalen-2-yl)methyl)-N-(pyridin-4-yl)azetidine-3-carboxamide]
C (ke is 0) | CCCCN(C)C(=O)C1CN(CC2=C(C)c3ccc(OCc4ccc(CCC)cc4OC)cc3CC2)C1 [Compound 14, N-butyl-1-((6-((2-methoxy-4-propylbenzyl)oxy)-1-methyl-3,4-dihydronaphthalen-2-yl)methyl)-N-methylazetidine-3-carboxamide]
A (ke is more than or equal to 1.0) | CCCCNC(=O)C1CN(CC2=C(C)c3ccc(OCc4ccc(CCC)cc4OC)cc3CC2)C1 [Compound 15, N-butyl-1-((6-((2-methoxy-4-propylbenzyl)oxy)-1-methyl-3,4-dihydronaphthalen-2-yl)methyl)azetidine-3-carboxamide]
C (ke is 0) | CCCc1ccc(COc2ccc3c(c2)CCC(CN2CC(C(=O)N(CC)CC)C2)=C3C)c(OC)c1 [Compound 16, N,N-diethyl-1-((6-((2-methoxy-4-propylbenzyl)oxy)-1-methyl-3,4-dihydronaphthalen-2-yl)methyl)azetidine-3-carboxamide]
C (ke is 0) | CCCc1ccc(COc2ccc3c(c2)CCC(CN2CC(C(=O)N(C)CC)C2)=C3C)c(OC)c1 [Compound 17, N-ethyl-1-((6-((2-methoxy-4-propylbenzyl)oxy)-1-methyl-3,4-dihydronaphthalen-2-yl)methyl)-N-methylazetidine-3-carboxamide]
A (ke is more than or equal to 1.0) | CCCNC(=O)C1CN(CC2=C(C)c3ccc(OCc4ccc(CCC)cc4OC)cc3CC2)C1 [Compound 18, 1-((6-((2-methoxy-4-propylbenzyl)oxy)-1-methyl-3,4-dihydronaphthalen-2-yl)methyl)-N-propylazetidine-3-carboxamide]
A (ke is more than or equal to 1.0) | CCCc1ccc(COc2ccc3c(c2)CCC(CN2CC(C(=O)NCC)C2)=C3C)c(OC)c1 [Compound 19, N-ethyl-1-((6-((2-methoxy-4-propylbenzyl)oxy)-1-methyl-3,4-dihydronaphthalen-2-yl)methyl)azetidine-3-carboxamide]
A (ke is more than or equal to 1.0) | CCCc1ccc(COc2ccc3c(c2)CCC(CN2CC(C(=O)NOC)C2)=C3C)c(OC)c1 [Compound 20, N-methoxy-1-((6-((2-methoxy-4-propylbenzyl)oxy)-1-methyl-3,4-dihydronaphthalen-2-yl)methyl)azetidine-3-carboxamide]
A (ke is more than or equal to 1.0) | CCCc1ccc(COc2ccc3c(c2)CCC(CN2CC(C(=O)N(C)OC)C2)=C3C)c(OC)c1 [Compound 21, N-methoxy-1-((6-((2-methoxy-4-propylbenzyl)oxy)-1-methyl-3,4-dihydronaphthalen-2-yl)methyl)-N-methylazetidine-3-carboxamide]
B (ke is less than 1.0 and more than 0) | CCCc1ccc(COc2ccc3c(c2)CCC(CN2CC(C(=O)N(C)C)C2)=C3C)c(OC)c1 [Compound 23, 1-((6-((2-methoxy-4-propylbenzyl)oxy)-1-methyl-3,4-dihydronaphthalen-2-yl)methyl)-N,N-dimethylazetidine-3-carboxamide]
